Assay results as given in patent US20240034723A1, “PIPERIDINYL SMALL MOLECULE DEGRADERS OF HELIOS AND METHODS OF USE” (DANA-FARBER CANCER INSTITUTE, INC., priority 2020, published 2024).

Target: T1, IKZF2 (Helios) (Homo sapiens, UniProt Q96SW2+Q9UKS7)
T1 construct: CRISPR/Cas-mediated insertion of the HiBiT peptide tag (Promega™) to the N-terminus of the IKZF2 gene locus; endogenous in cells; host or cells: MOLT4 cells, CRISPR/Cas knock-in of HiBiT at the endogenous IKZF2 locus
Experiment: HiBiT protocol: HiBiT-Helios degradation in MOLT4 cells (Example 63)
Type: cell-based
Conditions: after 6 hours of treatment, 13-point 10 μM to 0.00026 μM
Protocol: The HiBiT protein tagging system was applied to MOLT4 cells via a CRISPR/Cas-mediated insertion of the HiBiT peptide tag (Promega™) to the N-terminus of the IKZF2 gene locus (Neon™ Transfection System). The resulting HiBiT-Helios stable cell line was treated with the following inventive compounds in triplicates following a 13-point concentration scheme ranging from 10 μM to 0.00026 μM. At the indicated timepoints, the Nano-Glo® HiBiT Lytic Detection system (Promega™) was utilized for detecting bioluminescence of the HiBiT tag in treated cells: the abundance of the tag is proportionate to the level of luminescence. Following normalization to DMSO, dose-response curves were plotted (GraphPad Prism) to determine the concentration points at which 50% of HiBiT-Helios degradation was achieved by each compound. The extent of degradation (range of luminescence) from the highest to lowest concentration points was calculated to determine Dmax.

T1 sequence (Q9UKS7 whole entry): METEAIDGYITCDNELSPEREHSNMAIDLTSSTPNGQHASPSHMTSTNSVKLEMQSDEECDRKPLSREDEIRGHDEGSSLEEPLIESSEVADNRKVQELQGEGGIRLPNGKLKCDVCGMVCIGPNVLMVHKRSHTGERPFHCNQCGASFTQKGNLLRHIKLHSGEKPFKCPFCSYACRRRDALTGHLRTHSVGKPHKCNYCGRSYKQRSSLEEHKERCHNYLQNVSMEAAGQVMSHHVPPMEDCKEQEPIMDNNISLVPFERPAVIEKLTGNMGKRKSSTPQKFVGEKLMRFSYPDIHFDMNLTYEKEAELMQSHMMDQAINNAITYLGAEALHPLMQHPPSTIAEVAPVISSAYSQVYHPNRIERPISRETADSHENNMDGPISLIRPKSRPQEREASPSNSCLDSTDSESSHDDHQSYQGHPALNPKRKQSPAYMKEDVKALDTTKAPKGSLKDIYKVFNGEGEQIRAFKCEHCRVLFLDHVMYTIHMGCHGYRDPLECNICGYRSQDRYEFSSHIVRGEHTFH
T1 sequence (Q96SW2 whole entry): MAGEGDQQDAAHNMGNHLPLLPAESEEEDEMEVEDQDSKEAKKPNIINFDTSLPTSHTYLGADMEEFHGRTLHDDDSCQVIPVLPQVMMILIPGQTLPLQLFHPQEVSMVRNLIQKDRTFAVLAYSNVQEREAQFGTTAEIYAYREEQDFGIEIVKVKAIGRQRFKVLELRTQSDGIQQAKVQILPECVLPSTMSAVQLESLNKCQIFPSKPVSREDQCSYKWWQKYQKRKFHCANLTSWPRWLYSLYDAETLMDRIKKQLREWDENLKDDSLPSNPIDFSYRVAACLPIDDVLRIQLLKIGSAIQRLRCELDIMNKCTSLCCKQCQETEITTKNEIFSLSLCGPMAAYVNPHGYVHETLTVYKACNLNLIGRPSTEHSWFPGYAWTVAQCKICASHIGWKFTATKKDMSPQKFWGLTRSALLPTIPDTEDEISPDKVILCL
T1 sequence (Q16531 whole entry partner): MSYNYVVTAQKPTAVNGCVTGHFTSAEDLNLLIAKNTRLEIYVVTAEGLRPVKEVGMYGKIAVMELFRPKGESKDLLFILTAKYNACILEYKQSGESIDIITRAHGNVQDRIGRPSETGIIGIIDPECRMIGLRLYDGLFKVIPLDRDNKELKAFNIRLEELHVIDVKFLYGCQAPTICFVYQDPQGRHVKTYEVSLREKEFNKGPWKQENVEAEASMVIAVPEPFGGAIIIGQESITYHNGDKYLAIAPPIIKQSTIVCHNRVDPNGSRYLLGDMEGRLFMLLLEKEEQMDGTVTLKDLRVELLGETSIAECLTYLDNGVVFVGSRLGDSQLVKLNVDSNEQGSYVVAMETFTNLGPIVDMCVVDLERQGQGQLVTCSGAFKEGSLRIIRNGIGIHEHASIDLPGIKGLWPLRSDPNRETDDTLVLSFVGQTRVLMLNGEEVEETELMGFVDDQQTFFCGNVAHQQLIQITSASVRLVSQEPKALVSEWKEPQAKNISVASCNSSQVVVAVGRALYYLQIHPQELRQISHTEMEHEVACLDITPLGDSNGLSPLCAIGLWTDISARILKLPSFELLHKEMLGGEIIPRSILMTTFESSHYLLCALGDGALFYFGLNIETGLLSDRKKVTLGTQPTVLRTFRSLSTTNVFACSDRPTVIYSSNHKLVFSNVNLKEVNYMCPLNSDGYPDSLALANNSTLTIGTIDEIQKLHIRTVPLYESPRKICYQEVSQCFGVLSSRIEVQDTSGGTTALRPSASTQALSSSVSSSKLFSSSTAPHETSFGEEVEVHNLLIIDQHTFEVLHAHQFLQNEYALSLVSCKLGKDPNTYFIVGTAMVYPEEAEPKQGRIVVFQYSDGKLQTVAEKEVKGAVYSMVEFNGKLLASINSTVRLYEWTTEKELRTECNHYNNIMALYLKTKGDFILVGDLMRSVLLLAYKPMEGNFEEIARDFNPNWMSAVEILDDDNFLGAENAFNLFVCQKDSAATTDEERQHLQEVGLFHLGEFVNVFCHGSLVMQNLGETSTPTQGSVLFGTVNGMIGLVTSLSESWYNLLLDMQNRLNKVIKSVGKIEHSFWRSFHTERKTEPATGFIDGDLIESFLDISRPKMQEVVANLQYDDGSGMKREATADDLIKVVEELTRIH

SMILES	DC50 [nM]
O=C1CCC(N2Cc3cc(C4CCN(Cc5ccc6cc(-c7ccccc7)nn6c5)CC4)ccc3C2=O)C(=O)N1 (stereo not shown) [Compound 38, 3-[1-oxo-5-[1-[(2-phenylpyrazolo[1,5-a]pyridin-6-yl)methyl]-4-piperidyl]isoindolin-2-yl]piperidine-2,6-dione]	5 to 25
O=C1CCC(N2Cc3cc(C4CCN(Cc5ccc6c(c5)N(c5ccccc5)C(=O)C6)CC4)ccc3C2=O)C(=O)N1 (stereo not shown) [Compound 18, 3-[1-oxo-5-[1-[(2-oxo-1-phenyl-indolin-6-yl)methyl]-4-piperidyl]isoindolin-2-yl]piperidine-2,6-dione]	< 5
O=C1CCC(N2Cc3cc(C4CCN(Cc5ccc6c(c5)C(=O)N(c5ccccc5)CCO6)CC4)ccc3C2=O)C(=O)N1 (stereo not shown) [Compound 1, 3-(1-oxo-5-(1-((5-oxo-4-phenyl-2,3,4,5-tetrahydrobenzo[f][1,4]oxazepin-7-yl)methyl)piperidin-4-yl)isoindolin-2-yl)piperidine-2,6-dione]	< 5
O=C1CCC(N2Cc3cc(C4CCN(Cc5ccc6ncn(-c7ccccc7F)c(=O)c6c5)CC4)ccc3C2=O)C(=O)N1 (stereo not shown) [Compound 27]	5 to 25
O=C1CCC(N2Cc3cc(C4CCN(Cc5ccc6ccc(-c7ccccc7)nc6c5)CC4)ccc3C2=O)C(=O)N1 (stereo not shown) [Compound 41]	25 to 100
O=C1CCC(N2Cc3cc(C4CCN(Cc5ccc6c(c5)C(=O)N(c5cccc(Cl)c5)CCO6)CC4)ccc3C2=O)C(=O)N1 (stereo not shown) [Compound 6]	< 5
O=C1CCC(N2Cc3cc(C4CCN(Cc5ccc6c(c5)C(=O)N(c5ccccn5)CCO6)CC4)ccc3C2=O)C(=O)N1 (stereo not shown) [Compound 3]	5 to 25
O=C1CCC(N2Cc3cc(C4CCN(Cc5ccc6c(c5)C(=O)N(c5cccc(F)c5)CCO6)CC4)ccc3C2=O)C(=O)N1 (stereo not shown) [Compound 5]	< 5
O=C1CCC(N2Cc3cc(C4CCN(Cc5ccc6ncn(-c7ccccn7)c(=O)c6c5)CC4)ccc3C2=O)C(=O)N1 (stereo not shown) [Compound 31, 3-(1-oxo-5-(1-((4-oxo-3-(pyridin-2-yl)-3,4-dihydroquinazolin-6-yl)methyl)piperidin-4-yl)isoindolin-2-yl)piperidine-2,6-dione]	5 to 25
O=C1CCC(N2Cc3cc(C4CCN(Cc5cc6n(n5)CCN(c5ccccc5)C6=O)CC4)ccc3C2=O)C(=O)N1 (stereo not shown) [Compound 8, 3-(1-oxo-5-(1-((4-oxo-5-phenyl-4,5,6,7-tetrahydropyrazolo[1,5a]pyrazin-2-yl)methyl)piperidin-4-yl)isoindolin-2-yl)piperidine-2,6-dione]	5 to 25
O=C1CCC(N2Cc3cc(C4CCN(Cc5ccc6c(c5)N(c5ccccc5)C(=O)CCC6)CC4)ccc3C2=O)C(=O)N1 (stereo not shown) [Compound 22]	5 to 25
Cn1cccc(Nc2cccc(CN3CCC(c4ccc5c(c4)CN(C4CCC(=O)NC4=O)C5=O)CC3)c2)c1=O (stereo not shown) [Compound 12, 3-(5-(1-(3-((1-Methyl-2-oxo-1,2-dihydropyridin-3-yl)amino)benzyl)piperidin-4-yl)-1-oxoisoindolin-2-yl)piperidine-2,6-dione]	5 to 25

More lines, now with the values ahead:

DC50 [nM]	SMILES
5 to 25	O=C1CCC(N2Cc3cc(C4CCN(Cc5ccc6c(c5)C(=O)N(c5ncccn5)CCO6)CC4)ccc3C2=O)C(=O)N1 (stereo not shown) [Compound 46]
5 to 25	O=C1CCC(N2Cc3cc(C4CCN(Cc5ccc6c(c5)C(=O)N(c5ccncn5)CCO6)CC4)ccc3C2=O)C(=O)N1 (stereo not shown) [Compound 47]
5 to 25	O=C1CCC(N2Cc3cc(C4CCN(Cc5ccc6ncn(-c7ccns7)c(=O)c6c5)CC4)ccc3C2=O)C(=O)N1 (stereo not shown) [Compound 59]
< 5	O=C1CCC(N2Cc3cc(C4CCN(Cc5ccc6cn(-c7ccccc7)nc6c5)CC4)ccc3C2=O)C(=O)N1 (stereo not shown) [Compound 42]
< 5	O=C1CCC(N2Cc3cc(C4CCN(Cc5ccc6ccn(-c7ccccn7)c(=O)c6c5)CC4)ccc3C2=O)C(=O)N1 (stereo not shown) [Compound 57]
5 to 25	O=C1CCC(N2Cc3cc(C4CCN(Cc5ccc6cnn(-c7ccccn7)c(=O)c6c5)CC4)ccc3C2=O)C(=O)N1 (stereo not shown) [Compound 43, 3-[1-oxo-5-[1-[[4-oxo-3-(2-pyridyl)phthalazin-6-yl]methyl]-4-piperidyl]isoindolin-2-yl]piperidine-2,6-dione]
5 to 25	O=C1CCC(N2Cc3cc(C4CCN(Cc5ccc6c(c5)C(=O)N(c5ccsn5)CCO6)CC4)ccc3C2=O)C(=O)N1 (stereo not shown) [Compound 48]
< 5	O=C1CCC(N2Cc3cc(C4CCN(Cc5ccc6c(c5)C(=O)N(c5ccns5)CCO6)CC4)ccc3C2=O)C(=O)N1 (stereo not shown) [Compound 49]
5 to 25	O=C1CCC(N2Cc3cc(C4CCN(Cc5ccc6ncn(-c7ccccc7)c(=O)c6c5)CC4)ccc3C2=O)C(=O)N1 (stereo not shown) [Compound 44]
< 5	O=C1CCC(N2Cc3cc(C4CCN(Cc5ccc6c(c5)C(=O)N(c5ccccc5F)CCO6)CC4)ccc3C2=O)C(=O)N1 (stereo not shown) [Compound 45]
